In patent US8906829B2, “Synergistic algicidal compositions including hydrazone derivatives and copper” (Dow AgroSciences LLC, priority 2010, dated 2014):

Key:
[1] = tested on: C. reinhardtii CC-1928; experiment: Effect of copper on activity of hydrazones: in vitro growth inhibition of C. reinhardtii in TAP Cu minus / TAP Cu plus medium (Example 10); format: cell-based, Chlamydomonas reinhardtii; details: test compound 1 μg/mL, 48 h; for inhibition of growth at 1 µg/mL: Chlamydomonas reinhardtii, TAP Cu minus medium, read-out: % Inhn. Minus Copper Observed; for % Inhn. Plus Copper Observed: TAP Cu plus medium (CuCl2)
Description: In vitro toxicity assays against C. reinhardtii CC-1928 (wild type mt+137c green in dark subclone) obtained from the Chlamydomonas Resource Center at Duke University were conducted using TAP liquid growth medium described by Gorman and Levine Proc. Natl. Acad. Sci. USA 1965, 54, 1665-1669 except that CuSO4.5H2O, normally included as a component of Hutner's trace element stock solution (Hutner et al. Proc. Am. Philos. Soc. 1950, 94, 152-170), was omitted. The TAP medium lacking Cu (TAP Cu minus) was prepared by adding 400 mg NH4Cl, 10 mL of 100× Tris-Acetate (242 g Tris-base and 100 mL glacial acetic acid in 1000 mL milli Q water), and 8.3 mL of 120.5× phosphate buffer (14.34 g K2HPO4 and 7.26 g KH2PO4 in 1000 mL milli Q water) to milli Q water to make a total volume of 1 liter. The medium was treated with 0.5 g Chelex 100 resin (Bio-Rad Analytical grade, 50-100 mesh, sodium form, cat#142-2822) by stirring at room temperature for 1 hour. 900 mL were decanted and 45.9 mg of CaCl2.2H2O, 90 mg of MgSO4.7H2O and 0.9 mL Hutner's trace elements lacking CuSO4.5H2O were added and the solution was filter-sterilized. Medium containing copper (TAP Cu plus) was prepared by adding CuCl2.2H2O to the TAP Cu minus medium at 20 μM. Test compounds were dissolved in dimethylsulfoxide (DMSO) at 2 mg/mL then dilutions in TAP Cu minus and TAP Cu plus media were prepared in sterilized microcentrifuge tubes at 2 μg/mL. 100 μL aliquots of diluted compound were dispensed into flat-bottomed 96-well microtiter plates. C. reinhardtii was maintained under 12 h of light on TAP agar plates at 18° C. A loopful of cells was added to 50 mL of TAP Cu minus medium and the culture incubated with shaking at 200 rpm at 27° C. for 24 h. The culture (10 to 20 mL aliquot) was centrifuged in a bench centrifuge at 2000 rpm for 2 min. The resulting cell pellet was resuspended in 5 mL sterile milli Q water (which had been treated with Chelex 100 resin using 0.5 g resin per liter of water by stirring at room temperature for 1 h), and recentrifuged. The cells were resuspended in TAP Cu minus medium, and the suspension adjusted to 2×10^5 spores per mL. Microtiter plates containing compounds as described above were inoculated with 100 μL of this cell suspension and the plates incubated at 27° C. for 48 h before assessing algal growth by measuring light scattering in a NepheloStar plate-reader. Growth inhibition was determined by comparing growth in the presence of test compound with growth in control wells lacking test compound. Results for growth inhibition by test compounds at 1 μg/mL in TAP Cu plus medium (% Inhn Plus Copper Observed) were compared with predicted values (% Inhn Plus Copper Predicted) that were calculated using the formula set forth by S. R. Colby in Weeds 1967, 15, 20-22 based on results obtained for the same compounds in TAP Cu minus medium (% Inhn Minus Copper Observed). […] Results illustrate that hydrazones and copper produce a synergistic algicidal effect towards C. reinhardtii.

[2] = tested on: Synechocystis sp. strain 6803; experiment: Effect of copper on activity of hydrazones: in vitro growth inhibition of Synechocystis in BG-11 Cu minus / Cu plus medium (Example 11); format: cell-based; details: 72 h; for % Inhn. Plus Copper Observed: BG-11 Cu plus medium
Description: In vitro toxicity assays against the cyanobacterium (blue-green alga) Synechocystis sp. strain 6803 were conducted using BG-11 medium except that copper micronutrient, normally included as CuSO4.5H2O, was omitted. The medium, termed BG-11 Cu minus, was prepared by dissolving 1.5 g NaNO3, 40 mg K2HPO4, 6 mg citric acid, 1 mg Na2EDTA and 20 mg Na2CO3 in 1 liter of milli Q water and treating the solution with 0.5 g Chelex 100 resin (Bio-Rad Analytical grade, 50-100 mesh, sodium form, cat#142-2822) by stifling at room temperature for 1 h. 900 mL were decanted and 67.5 mg MgSO4.7H2O, 32.4 mg […], 5.4 mg ferric ammonium citrate and 0.9 mL trace metal mix A5 without copper (2.86 g H3BO3, 1.81 g MnCl2.4H2O, 222 mg ZnSO4.7H2O, 390 mg Na2MoO4.2H2O and Co(NO3)2.6H2O in 1 L Milli Q water) was added. The pH was adjusted to 7.1 and the medium was filter-sterilized. Medium containing copper (BG-11 Cu plus) was prepared by adding CuCl2.2H2O to the BG-11 Cu minus medium at 0.2 μM. Test compounds were dissolved in dimethylsulfoxide (DMSO) at 2 mg/mL then appropriate dilutions in BG-11 Cu minus and BG-11 Cu plus media were prepared in sterilized microcentrifuge tubes. 100 μL aliquots were dispensed into flat-bottomed 96-well microtiter plates. Synechocystis was maintained under 24 h of light on BG-11 agar plates at 27° C. A loopful of cells was added to 50 mL of BG-11 Cu minus growth medium and the culture was incubated with shaking at 200 rpm at 27° C. for 24 h. The culture (10 to 20 mL aliquot) was centrifuged in a bench centrifuge at 2400 rpm for 2 min. The resulting cell pellet was resuspended in 5 mL sterile milli Q water (which had been treated with Chelex 100 resin using 0.5 g resin per liter of water by stirring at room temperature for 1 h), and recentrifuged. The cells were resuspended in BG-11 Cu minus medium, and the suspension adjusted to 4×10^5 spores per mL. Microtiter plates containing compounds as described above were inoculated with 100 μL of this cell suspension and the plates incubated at 27° C. for 72 h before assessing algal growth by measuring light scattering in a NepheloStar plate reader. Growth inhibition was determined by comparing growth in the presence of test compound with growth in control wells lacking test compound. Results for growth inhibition by test compounds in BG-11 Cu plus medium (% Inhn Plus Copper Observed) were compared with predicted values (% Inhn Plus Copper Predicted) that were calculated using the formula set forth by S. R. Colby in Weeds 1967, 15, 20-22 based on-results obtained for the same compounds in BG-11 Cu minus medium (% Inhn Minus Copper Observed) and the inhibition attributed to copper chloride alone, as determined by comparing growth in copper-minus and copper-plus media without any test compound across experiments. Results illustrate that hydrazones and copper produce a synergistic algicidal effect towards Synechocystis.

[3] = Synechocystis, Test Concn. 0.0125 μg/mL, BG-11 Cu minus medium, read-out: % Inhn. Minus Copper Observed
[4] = Synechocystis, Test Concn. 0.05 μg/mL, BG-11 Cu minus medium, read-out: % Inhn. Minus Copper Observed

melting point [°C] | SMILES | inhibition of growth at 1 µg/mL [1] [%] | % Inhn. Plus Copper Observed [1] [%] | inhibition of growth at 0.0125 µg/mL [2, 3] [%] | % Inhn. Plus Copper Observed ([2]; Test Concn. 0.0125 μg/mL) [%] | inhibition of growth at 0.05 µg/mL [2, 4] [%] | % Inhn. Plus Copper Observed ([2]; Test Concn. 0.05 μg/mL) [%] | inhibition of growth at 0.00625 µg/mL ([2]; Synechocystis, Test Concn. 0.00625 μg/mL, BG-11 Cu minus medium, read-out: % Inhn. Minus Copper Observed) [%] | % Inhn. Plus Copper Observed ([2]; Test Concn. 0.00625 μg/mL) [%]
210 to 212 | O=C(N/N=C/c1cc(C(F)(F)F)cc(Cl)c1O)c1cccc(F)c1 [Compound 28] | 12 | 97 |  |  | 13 | 96 |  | 
200 to 202 | O=C(N/N=C/c1cc(C(F)(F)F)cc(Cl)c1O)c1ccc(F)cc1 [Compound 29] | 16 | 96 |  |  | 11 | 96 |  | 
176 to 180 | O=C(N/N=C/c1cccc(C(F)(F)F)c1O)c1cccc(F)c1 [Compound 34] | 8 | 97 |  |  | 34 | 91 |  | 
215 to 216 | O=C(N/N=C/c1cccc(C(F)(F)F)c1O)c1ccc(Cl)cc1 [Compound 35] | 9 | 97 |  |  | 26 | 91 |  | 
219 to 222 | O=C(N/N=C/c1ccc(Cl)c(Cl)c1O)c1cccc(Cl)c1 [Compound 40] | 22 | 96 |  |  |  |  | 4 | 64
228 to 229 | O=C(N/N=C/c1cc(Cl)cc(C(F)(F)F)c1O)c1cccc(Cl)c1 [Compound 47] | -5 | 77 | 24 | 60 |  |  |  | 

Further lines, the molecule ahead of its results:

SMILES | melting point [°C] | inhibition of growth at 1 µg/mL [1] [%] | % Inhn. Plus Copper Observed [1] [%] | inhibition of growth at 0.0125 µg/mL [2, 3] [%] | % Inhn. Plus Copper Observed ([2]; Test Concn. 0.0125 μg/mL) [%] | inhibition of growth at 0.05 µg/mL [2, 4] [%] | % Inhn. Plus Copper Observed ([2]; Test Concn. 0.05 μg/mL) [%] | inhibition of growth at 0.00625 µg/mL ([2]; Synechocystis, Test Concn. 0.00625 μg/mL, BG-11 Cu minus medium, read-out: % Inhn. Minus Copper Observed) [%] | % Inhn. Plus Copper Observed ([2]; Test Concn. 0.00625 μg/mL) [%]
C/C(=N\NC(=O)c1ccc(Cl)cc1)c1cccc([N+](=O)[O-])c1O [Compound 23] | 241 to 251 | -37 | 89 | 27 | 92 |  |  |  | 
O=C(N/N=C/c1cc(C(F)(F)F)cc(Cl)c1O)c1ccccc1 [Compound 24] | 216 to 222 | -2 | 90 |  |  | 45 | 93 |  | 
O=C(N/N=C/c1cc(C(F)(F)F)cc(Cl)c1O)c1ccccc1O [Compound 30] | 258 to 260 | 29 | 92 |  |  | 0 | 92 |  | 
Cc1ccc(C(=O)N/N=C/c2cc(C(F)(F)F)cc(Cl)c2O)c(O)c1 [Compound 31] | 255 to 257 | -1 | 88 |  |  | 38 | 92 |  | 
Cc1cccc(C(=O)N/N=C/c2cccc(C(F)(F)F)c2O)c1 [Compound 33] | 188 to 190 | 21 | 97 |  |  | 29 | 97 |  | 
O=C(N/N=C/c1cccc(C(F)(F)F)c1O)c1ccccc1O [Compound 36] | 230 to 234 | 7 | 96 | 28 | 87 |  |  |  | 
Cc1ccc(C(=O)N/N=C/c2cccc(C(F)(F)F)c2O)c(O)c1 [Compound 37] | 248 to 253 | 12 | 97 | 44 | 88 |  |  |  | 
Cc1cccc(C(=O)N/N=C/c2ccc(Cl)c(Cl)c2O)c1 [Compound 38] | 212 to 214 | 15 | 94 |  |  | 49 | 93 |  | 
O=C(N/N=C/c1ccc(Cl)c(Cl)c1O)c1cccc(F)c1 [Compound 39] | 215 to 218 | 8 | 91 |  |  | 31 | 92 |  | 
Cc1ccc(C(=O)N/N=C/c2ccc(Cl)c(Cl)c2O)c(O)c1 [Compound 41] | 271 to 278 | 28 | 96 | 26 | 93 |  |  |  | 
Cc1cccc(C(=O)N/N=C/c2c(Cl)ccc(Cl)c2O)c1 [Compound 42] | 214 to 216 | 10 | 96 |  |  | 10 | 94 |  | 
O=C(N/N=C/c1c(Cl)ccc(Cl)c1O)c1ccc(F)cc1 [Compound 43] | 264 to 267 | 9 | 93 |  |  | 23 | 95 |  | 
O=C(N/N=C/c1c(Cl)ccc(Cl)c1O)c1cccc(Cl)c1 [Compound 44] | 232 to 234 | 11 | 94 |  |  | 61 | 93 |  | 
O=C(N/N=C/c1c(Cl)ccc(Cl)c1O)c1ccccc1O [Compound 46] | 260 to 262 | 0 | 92 | 37 | 80 |  |  |  | 
